{"source": "patent US20240207369A1", "about": "“In Vitro Drugs from Prodrugs and Use Thereof” (Brandenburgische Tehnische Universitat Cottbus-Senftenberg, priority 2021, published 2024)", "test_system": "human thrombocytes (platelets)", "test": "ADP-induced platelet aggregation in whole blood, impedance aggregometry (Multiplate Analyzer)", "type": "cell-based", "details": "ADP 10 μM final; two-minute pre-incubation of the metabolite in blood of an apparently healthy subject; final metabolite concentration 0.31 mg per 1 mL; approx. 73% purity; FIG. 2", "experimental": "Example of embodiment of the effect of a metabolite produced via peroxygenase on human platelets (blood platelets).\nThe metabolite is present as a powder (approx. 4 mg) in a dark container and is stored in a freezer at at least −80° C. until the solution is prepared. On the day of use, the drug is dissolved in 500 μl of a suitable sterile solvent (here: phosphate-buffered saline, PBS). Powder and solvent are mixed rigorously. The complete dissolution of the powder is to be visually checked. The mixture is stored on ice or at approx. 0° C. until use.\nTo test the functionality of the agent, the aggregation of human thrombocytes (platelets) in whole blood is determined by impedance aggregometry (Paniccia, R.; Antonucci, E.; Maggini, N.; Romano, E.; Gori, A. M.; Marcucci, R.; Prisco, D.; Abbate, R. Assessment of Platelet Function on Whole Blood by Multiple Electrode Aggregometry in High-Risk Patients with Coronary Artery Disease Receiving Antiplatelet Therapy. American journal of clinical pathology 2009, 131, 834-42, doi:10.1309/AJCPTE3K1SGAPOIZ). For the test, approximately 5 ml of fresh whole blood is collected from a visible vein at the elbow (cubital vein) of a subject by an appropriately trained person using appropriate sterile blood collection equipment. The blood is collected into a collection vessel designed for this purpose (e.g. Sarstedt Monovette, Sarstedt, Numbrecht, Germany). […]"}
{"smiles": "COC(=O)[C@H](c1ccccc1Cl)N1CCC(S)C(=CC(=O)O)C1", "note": "(stereo partly drawn) [metabolite, 2-(1-((S)-1-(2-chlorophenyl)-2-methoxy-2-oxoethyl)-4-mercaptopiperidin-3-ylidene)acetic acid]", "values": [{"measurement": "ADP-induced platelet aggregation", "result": "reduction of ADP-induced platelet aggregation"}]}
